From patent US11135224B2, “Methods of sensitizing estrogen receptor positive (ER+) breast cancer cells to endocrine therapy” (New York University, priority 2018, dated 2021) come the findings set out here.

SMILES strings stand for the structures.

Common to all, as to format: cell-based, human
The test system of one assay is BR7 (PDX) cells. Description: Cell cycle analysis, BR7 (PDX) cells. The note with it: 1 μM 4-OH Tam. The protocol: (§1) Cells were fixed in 70% ethanol overnight. Cells were subjected to RNaseA treatment and stained with propidium iodide (PI). Data was collected using FACScalibur and analyzed with FloJo 10.0 software. Data from 3 independent experiments are shown. SEMs are shown. **P<0.01 and ***P<0.001 by two-way ANOVA. […] TamS and TamR cells were treated with either DMSO or 1 μM 4-OH Tam and initiated on day 0. Results are representative of 3 independent experiments and presented as relative proliferation in which all samples are normalized to Day 0. Standard deviations are shown. *P<0.05 by t-test. […] Cells were treated with either DMSO or 1 μM 4-HT 24 hours after plating. Colonies scored after 10 days counting only ≥50 cells/colony. Results are representative of 3 independent experiments. SEMs are shown. ***P<0.001 by two-way ANOVA. […] Equal amounts of RNA were reverse transcribed and quantified through real-time PCR. RNA levels normalized to GAPDH using the ^−ΔΔCt method. Error bars represent SEM. […] RNA levels normalized to GAPDH using the ^−ΔΔCt method. Error bars represent SEM.
(§2) Cell Cycle Analysis: Cells were trypsinized, filtered, and counted using an automated cell counter (Bio-Rad). […] Data were collected using a FACScalibur or LSRII UV and analyzed with FlowJo 10.0.

Assay [1] relates to TamR cells (MCF7 LCC9). The assay is described as follows: Cell proliferation assay (MTT), TamR cells. The note with it: 1 μM 4-OH Tam. The protocol:
as §1
Endogenous eIF4E was silenced by shRNA. […]
Cell Proliferation Assay: Cell proliferation was measured using the CellTiter 96 nonradioactive cell proliferation assay kit (Promega) according to the manufacturer's instructions. […] Absorbance was measured at 570 nm. […]

The subject of assay [2] is TamR cells (MCF7 LCC9). Description: Colony survival assay, TamR cells. The protocol:
as §1
Cells were lysed in NP-40 buffer and probed for key translation factors. β-tubulin (loading control). […] Cells were treated with either DMSO or 1 μM 4-OH Tam 24 hours after plating. Dox (1 μg/mL) was administered 24 hours after plating and removed after 72 hours. Colonies scored after 10 days counting only ≥50 cells/colony. SEM is shown. […] Cells were treated with either DMSO control or 1 μM 4-OH Tam for 72 hours in 1% CS-FBS. Dox (1 μg/mL) was administered to cells for 72 hours. […] Data was collected using LSRII UV and analyzed with FloJo software. […] Data was collected using FACScalibur and analyzed with FloJo 10.0 software. […] Data was collected using FACScalibur and analyzed with FloJo 10.0 software. […] Colonies scored after 10 days counting only ≥50 cells/colony. […]
Hsp70 (loading control). […] Colonies were scored after 10 days counting only >50 cells/colony. […] Equal amounts of RNA were resolved by sucrose gradient centrifugation and ribosome profiles monitored by UV absorbance 254 nm. […]

A further assay has as its system TamS cells (MCF7 LCC1). Description: Cell cycle analysis, TamS cells with or without eIF4E overexpression. The note with it: 1 μM 4-OHT for 72 h, regardless of eIF4E overexpression. The protocol: Dox (2 μg/mL) was added 72 hours prior to lysis in NP-40 buffer. Equal protein amounts were immunoblotted as shown. β-Actin was used as a loading control. […] Dox (2 μg/mL) was added for 72 hours. Cells were subjected to exhaustive RNase A and stained with propidium iodide (PI). Flow cytometry data were collected using a FACScalibur and analyzed with FloJo software. The average of three studies is shown. […] Cells were treated with 2 μg/mL Dox for 72 hours and lysed in NP-40 buffer. Equal protein amounts were immunoblotted. β-Actin was used as a loading control. Representative results are shown. […] TamS sh-control, eIF4E-overexpressing, shTSC2, and shTSC2 and eIF4E-overexpressing cells were treated with either DMSO or 1 μM 4-OHT. (**)P<0.01; (***)P<0.0001 by two-way ANOVA. […] Results are the average of three independent studies.
Cell Cycle Analysis: Cells were trypsinized, filtered, and counted using an automated cell counter (Bio-Rad). Cells (7×10^5) were seeded on 10-cm culture plates in IMEM (Corning) with 5% FBS (Gibco) and 0.4% gentamicin sulfate (Lonza) and allowed to adhere overnight. The medium was changed to IMEM (Corning) with 1% charcoal-stripped FBS (HyClone) and 0.4% gentamicin sulfate for 48 hours. Cells were treated with the appropriate drug for 72 hours and with fresh drug after 48 hours. […] Data were collected using a FACScalibur or LSRII UV and analyzed with FlowJo 10.0.

For assay [3], the system named is canonical ER signaling in TamR cells. The assay is described as follows: ER signaling mRNA expression (c-Myc, EEIG1) by real-time PCR, TamR cells. The note with it: Tam for 24 hours. The protocol: as §1
(§3) Quantitative Real-Time PCR (RT-qPCR) and Analysis: RNA was extracted using Trizol as per the manufacturer's instructions. […] Fold change was calculated using the 2^−ΔΔCt method.

Assay [4] has as its system canonical ER signaling in BR7 cells. Description: ER signaling mRNA expression (c-Myc, EEIG1) by real-time PCR, BR7 (PDX) cells. The note with it: Tam for 24 hours. The protocol: as §1, §3
(In general: Quantitative PCR measures a nucleic acid by following its amplification.)

Assay [5] concerns TamR cells (MCF7 LCC9). Description: Cell cycle analysis, TamR cells. The note with it: 20 nM RAD001 plus 1 μM 4-OH Tam, 72 hours. The method, then: Cells were lysed in NP-40 buffer and probed for key translation factors. β-tubulin (loading control). […] Cells were treated with either DMSO or 1 μM 4-OH Tam 24 hours after plating. Dox (1 μg/mL) was administered 24 hours after plating and removed after 72 hours. Colonies scored after 10 days counting only ≥50 cells/colony. SEM is shown. […] Cells were treated with either DMSO control or 1 μM 4-OH Tam for 72 hours in 1% CS-FBS. Dox (1 μg/mL) was administered to cells for 72 hours. Cells were fixed in 70% ethanol overnight and subjected to RNaseA treatment. Cells were stained with Hoechst 33342. Data was collected using LSRII UV and analyzed with FloJo software. Data from 3 independent experiments are shown. SEM is shown. *P<0.05 by two-way ANOVA. […] Cap chromatography performed on TamR cells with or without 4E-BP1 cDNA overexpression. Cells were lysed in NP-40 buffer and pulldown was performed for 1 hour at 4° C. Proteins were eluted and resolved via SDS-PAGE. […] Data was collected using FACScalibur and analyzed with FloJo 10.0 software. […] Data was collected using FACScalibur and analyzed with FloJo 10.0 software. […] Colonies scored after 10 days counting only ≥50 cells/colony. […]
as §2

`CC/C(=C(\c1ccccc1)c1ccc(OCCN(C)C)cc1)c1ccccc1` [tamoxifen]: in the assay with BR7 (PDX) cells, the “cell cycle distribution under tamoxifen” value is recorded as “normal cell cycle distribution”. Moreover, the proliferation under tamoxifen entry in the assay with TamR cells (MCF7 LCC9) [1] was “maintain normal proliferation and survival”. For the same compound, the survival under tamoxifen entry in the assay with TamR cells (MCF7 LCC9) [2] (1 μM 4-OH Tam, 10 days) is “maintain normal proliferation and survival”. Moreover, the “proliferation in the presence of tamoxifen” value in the assay with TamS cells (MCF7 LCC1) is “unable to proliferate”. Further, the “tamoxifen-induced repression of canonical ER signaling” value in assay [3] and in assay [4] was “insensitive” in each case.
For `CO[C@H]1C[C@@H]2CC[C@@H](C)[C@@](O)(O2)C(=O)C(=O)N2CCCC[C@H]2C(=O)O[C@H]([C@H](C)C[C@@H]2CC[C@@H](OCCO)[C@H](OC)C2)CC(=O)[C@H](C)/C=C(\C)[C@@H](O)[C@@H](OC)C(=O)[C@H](C)C[C@H](C)/C=C/C=C/C=C/1C` [RAD001, Everolimus], the “resensitization to tamoxifen: cell proliferation” value in the assay on TamR cells (MCF7 LCC9) [5] is listed as “restoration of inhibition of cell proliferation”. Further, in the assay with TamR cells (MCF7 LCC9) [2] (20 nM RAD001 plus 1 μM 4-OH Tam, 10 days), the “resensitization to tamoxifen: survival” value is “decreased survival”. In addition, in the assay on TamR cells (MCF7 LCC9) [2] (RAD001 added to 1 μM 4-OHT plus 10 μM CGP57380), the “cell survival on cotreatment” value is “further additive reduction in cell survival”.
